Measured values taken from patent US20260275280A1, “DIRECTED DIFFERENTIATION PROTOCOLS TO DERIVE BONE FIDE SPINAL SENSORY INTERNEURONS” (THE REGENTS OF THE UNIVERSITY OF CALIFORNIA, priority 2022, published 2026).
Entries after “also recorded” stand apart in the source; their conditions may differ.

Key:
Type in all cases: cell-based, mouse
[1] = tested on: dorsal NPCs in mESC-derived EBs; assay: Embryoid body proliferation assay (EdU incorporation, pH3) with CHIR
Description: Embryoid body (EB) culture. and expansion: To initiate EB formation, dissociated embryonic stem cells were seeded in low attachment plates (Corning) at 10^5 cells/ml density in N2/B27 medium supplemented with 10 ng/ml bFGF. To induce posterior spinal cord and dorsal spinal patterning, RA and RA+BMP4 were added using the same timeline as described for the 2D differentiation, and the media was changed at every other day after day 5.
For EBs, EBs were collected and fixed with fresh 4% PFA for 20 minutes at 4° C. EBs were then equilibrated with 30% sucrose for overnight at 4C and embedded into the OCT compound for cryo-sectioning. 12 um sections were collected onto positive charged slides (VVVR), incubated with the antibody blocking solution for 1 hr, and then stained as above.
Image quantification: To count the number of nuclei, images were converted to 8 bit image in ImageJ, their threshold intensity was adjusted to capture only the florescent nuclei, and the number of nuclei counted using the analyze particle tool in ImageJ. For each image, the area under the DAPI staining was determined using ImageJ and target cells were represented as % of cells in 100 μm^2 DAPI^+ area.
We then asked whether activating Wnt signaling in mESC-derived NMPs affected their mitotic index. To better visualize proliferation, mESCs were permitted to assemble into three dimensional EBs (Andrews et al., 2017; Duval et al., 2019; Gupta et al., 2018), and then treated with RA±BMP4 over the same timeline as protocol 1 and 3 (FIG. 1B) to induce dorsal spinal cord patterning. EBs were then cultured with either DMSO or CHIR from day 5 to day 9 (FIG. 6C), when the cultures were pulsed with 5-Ethynyl-2′-deoxyuridine (EdU) to label cells in S-phase of the cell cycle. Strikingly, there was a ~3-fold increase in EdU+cells in CHIR-treated EBs (FIG. 6E, 6G, 6H) compared to DMSO control (FIG. 6D, 6F, 6H) in both protocols. […] Many of the dividing cells in the CHIR-treated cultures were Sox2+NPCs (FIG. 6E, 6G), while NPCs are largely depleted by day 9 in control cultures (FIG. 6D, 6F). Thus, extending the window of Wnt signaling appears to prolong NPC proliferation.

CHIR-expanded EBs = assay: Differentiation of CHIR-expanded EBs on Matrigel (IHC, RT-qPCR at day 10)
Description: Embryoid body (EB) differentiation: To induce differentiation, EBs were dissociated into smaller clumps by a 5-7-minute treatment with cold 0.25% Trypsin (Gibco), followed by trituration. Trypsin was neutralized with 1:1 addition of Trypsin inhibitor (Sigma-Aldrich) and cells were pelleted by centrifugation at 1000RPM. Cell pellets were resuspended in N2/B27 medium (without growth factors) and plated onto a Matrigel precoated plate. In our experience, the single cell suspension of 100-150 EBs provided enough cells to seed one 24-well plate. […] At the end of 10 days, multiple neural processes can be visualized by phase contrast microscopy and cultures were either fixed with 4% PFA for immunohistochemistry or lysed to extract RNA in RLT buffer (Qiagen). […] CHIR withdrawal), or DAPT, a pro-differentiation agent (Crawford and Roelink, 2007) (FIG. 7J). […] This strategy was successful at restoring almost all dI identities in cultures taken from EBs both at the earliest passage and at the latest passage assessed (passage 7;

[2] = tested on: mESCs derived spinal NPCs; assay: Sufficiency of Wnt ligands or CHIR for dI fates (RT-qPCR at day 9)
Description: The mouse ESC line, MM13, was routinely maintained in ES cell media (DMEM+20% FBS) with 100u/ml of mouse leukocyte inducing factor (LIF). […] To prepare cells for the differentiation, ESC colonies were dissociated with 0.25% trypsin and plated on gelatin coated plates at 1:10 dilution to reduce MEF transfer. Cells cultured on gelatin coated plates and allowed to proliferate for 1-2 days. To initiate differentiation, cells were plated on 0.1% gelatin coated 24-well CellBIND dishes (Corning) at 20,000 cells/ml density in 0.5 ml/well N2/B27 medium that contains 10 ng/ml basic fibroblast growth factor (bFGF). The N2/B27 medium contains 1:1 portions of Advanced Dulbecco's modified Eagle Media (DMEM) F12 (Hyclone) and Neurobasal media (Thermo Fisher Scientific) supplemented with 0.5×N2, 1×B27 supplement (with Vitamin A), 2 mM L-glutamine, 0.1 mM 2-mercaptoethanol (ME), and 1% BSA. On day 1, small colonies of cells can be observed attached to the bottom of the wells. On day 2, cells were supplemented with 10 ng/ml bFGF and 5 μM CHIR99021 for 24 hours to induce a neuromesodermal identity (Gouti et al., 2014). On day 3, media was changed as follows: for protocol 1, cells were exposed to 100 nM RA for 48 hrs. For protocol 2, 10 ng/ml human recombinant BMP4 (Thermo Fisher Scientific) was added concomitantly with 100 nM RA (RA+BMP4) for 48 hrs. For protocol 3, cells were exposed to 100 nM RA for 24 hrs, followed by a pulse of RA+BMP4 for another 24 hours. To induce terminal differentiation in all three conditions, the medium containing growth factors was replaced with basic N2/B27 medium at day 5, and cell allowed to differentiate to day 9. At the end of the differentiation, the cultures were fixed for immunohistochemical analysis or lysed to obtain RNA for RNA-Seq or quantitative reverse transcriptase PCR analysis.
Quantitative (a) RT-PCR analysis: RNA was isolated with RNeasy Mini Kit (Qiagen, cat no. 74104), and converted to cDNA using Superscript IV First Strand Synthesis kit (Thermo Fisher Scientific). qRT-PCR was performed using SYBR Green PCR Master Mix (Applied Biosystems) on Roche 480 Lightcycler (Roche). The relative fold expression was calculated using 2-AACt method of comparing the expression of the target gene with that of the housekeeping gene glyceraldehyde 3-phosphate dehydrogenase (Gapdh). All experiments were repeated at least 2-3 times (technical replicates) from at least two independent differentiations (biological replicates), and data is represented as mean±SEM.
We assessed these models, first by determining the effect of canonical Wnts (Wnt1, Wnt2, and Wnt3a), a non-canonical Wnt (Wnt9b) and a small molecule Wnt agonist (CHIR99021) on dI identity in the RA±BMP4 protocols. When Wnts were added in combination with RA, they were unable to induce the dorsal-most dIs by day 9 (FIG. 14A). […] Thus, Wnts are not sufficient to direct dI fate identity.

[3] = RA±BMP4 patterned EBs, CHIR day 5 to day 9

| Structure (SMILES) | increase in EdU+ cells compared to DMSO control [1, 3] | increase in the number of pHistone H3 (pH3)+ cells compared to control [1, 3] | increase in cell proliferation (EdU+ and pH3+ cells) compared to DMSO ([1]; RA±BMP4 patterned EBs, n=15-25 EBs) | identity of CHIR-treated NPCs (Pax3, Pax7, Olig3) ([1]; protocol 1 and protocol 3 EBs, day 9) | identity of cultures kept in CHIR by day 10 (CHIR-expanded EBs; passage 6 or 7 EBs dissociated onto Matrigel) | effect of CHIR removal on differentiation (CHIR-expanded EBs; passage 6 or 7 EBs, day 10) | identity of the BMP4-mediated dI fates (Lhx2, Foxd3, IsI2) ([2]; RA+BMP4 protocol, Wnts 100 ng/ml or CHIR 5 μM for 24 hrs at day 5) | induction of BMP4 dependent dI fates (Lhx2, Foxd3, IsI1) ([2]; added with RA at day 4 for 24 hrs, Wnts 100 ng/ml, CHIR 5 μM) | increase in the number of dI4/dI6s (Pax2+) compared to control (CHIR-expanded EBs; pulse between day 3 and 5 during differentiation of expanded EBs) |
| --- | --- | --- | --- | --- | --- | --- | --- | --- | --- |
| Cc1c[nH]c(-c2cnc(NCCNc3ccc(C#N)cn3)nc2-c2ccc(Cl)cc2Cl)n1 [CHIR, CHIR99021] | ~ 3 fold | 2-4 fold | ~ 3 fold | retained their original identity; also recorded: does not significantly (unpaired t-test) alter their dorsal-ventral identities | continued to be solely Sox2^+ | removal of CHIR triggers spontaneous neural differentiation | no significant effect | do not induce BMP4-dependent dI fates |  |
| CC1=C(/C=C/C(C)=C/C=C/C(C)=C/C(=O)O)C(C)(C)CCC1 [RA, retinoic acid] |  |  |  |  |  |  |  |  | ~ 6 fold |
